These results are taken from patent publication US10604526B2, “Chemokine receptor modulators and uses thereof” (RAPT THERAPEUTICS, INC., priority 2016, dated 2020).

In general, IC50 refers to the concentration needed to halve the response being measured.

The target of this test is T1, hCCR4 (Homo sapiens, UniProt P51679).
T1 sequence (P51679 1-360): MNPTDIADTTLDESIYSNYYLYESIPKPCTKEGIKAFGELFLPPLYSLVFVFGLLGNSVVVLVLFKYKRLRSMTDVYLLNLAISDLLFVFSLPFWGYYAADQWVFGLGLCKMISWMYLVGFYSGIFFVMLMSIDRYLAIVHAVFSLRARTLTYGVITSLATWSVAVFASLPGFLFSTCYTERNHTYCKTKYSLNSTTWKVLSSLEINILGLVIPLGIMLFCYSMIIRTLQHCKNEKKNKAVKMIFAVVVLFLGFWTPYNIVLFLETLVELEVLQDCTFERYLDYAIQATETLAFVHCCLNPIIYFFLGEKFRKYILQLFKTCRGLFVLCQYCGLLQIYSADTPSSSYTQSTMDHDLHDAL
Description: Calcium flux assay. The test is classed as cell-based. The conditions noted are these: Chem5-hCCR4 cells, CCL22 at EC80 of 1.5 nM, FLIPR Calcium 6 dye; read-out: Potency (IC50). The gist of the method:
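Chem5 cells expressing hCCR4 were serum-starved for 2 h, loaded with Calcium 6 dye plus 2.5 mM probenecid, then given compound for 1 h at 37 °C (0.5% DMSO). CCL22 was added from a 7.5 nM working solution (5× EC80 of 1.5 nM). IC50 came from ΔF/Fmin (485/525 nm) by 4-parameter fit.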
With `CNC(=O)CCCN1CCC[C@@H](C2CN(c3cnc4c(C#N)nn([C@H](C)c5ccc(Cl)cc5Cl)c4n3)C2)C1` (single isomer, unassigned) [Example 68], the IC50 was in the range of 100 to 500 nM.

Consider `CNC(=O)CCCN1CCC[C@H](C2CN(c3cnc4c(C#N)nn([C@H](C)c5ccc(Cl)cc5Cl)c4n3)C2)C1` (single isomer, unassigned) [Example 69], for which the IC50 was less than 100 nM.

Take `C[C@H](c1ccc(Cl)cc1Cl)n1nc(C#N)c2ncc(N3CC([C@@H]4CCCN(CC(C)(C)O)C4)C3)nc21` (single isomer, unassigned) [Example 70]: the IC50 was less than 100 nM.

Turning to `C[C@H](c1ccc(Cl)cc1Cl)n1nc(C#N)c2ncc(N3CC([C@H]4CCCN(CC(C)(C)O)C4)C3)nc21` (single isomer, unassigned) [Example 71], the IC50 was less than 100 nM.

Regarding `CCCN1CCC[C@@H](C2CN(c3cnc4c(C#N)nn([C@H](C)c5ccc(Cl)cc5Cl)c4n3)C2)C1` (single isomer, unassigned) [Example 72], the IC50 fell in the range of 100 to 500 nM.

Regarding `CCCN1CCC[C@H](C2CN(c3cnc4c(C#N)nn([C@H](C)c5ccc(Cl)cc5Cl)c4n3)C2)C1` (single isomer, unassigned) [Example 73], the IC50 is less than 100 nM.

Take `C[C@H](c1ccc(Cl)cc1Cl)n1nc(C#N)c2ncc(N3CC([C@@H]4CCCN(CCCC(=O)N(C)C)C4)C3)nc21` (single isomer, unassigned) [Example 74]: the IC50 lay within 100 to 500 nM.

Take `C[C@H](c1ccc(Cl)cc1Cl)n1nc(C#N)c2ncc(N3CC([C@H]4CCCN(CCCC(=O)N(C)C)C4)C3)nc21` (single isomer, unassigned) [Example 75]: the IC50 is less than 100 nM.

For `CC(C)N1CCC[C@@H](C2CN(c3cnc4c(C#N)nn([C@H](C)c5ccc(Cl)cc5Cl)c4n3)C2)C1` (single isomer, unassigned) [Example 76], the IC50 lay in the range of 100 to 500 nM.

As to `CC(C)N1CCC[C@H](C2CN(c3cnc4c(C#N)nn([C@H](C)c5ccc(Cl)cc5Cl)c4n3)C2)C1` (single isomer, unassigned) [Example 77], the IC50 is less than 100 nM.

For `C[C@H](c1ccc(Cl)cc1Cl)n1nc(C#N)c2ncc(N3CC([C@H]4CCCN(CCCC(N)=O)C4)C3)nc21` (single isomer, unassigned) [Example 78], the IC50 was less than 100 nM.

Consider `C[C@H](c1ccc(Cl)cc1Cl)n1nc(C#N)c2ncc(N3CC([C@@H]4CCCN(CCCC(N)=O)C4)C3)nc21` (single isomer, unassigned) [Example 79], for which the IC50 lay within 100 to 500 nM.

Take `C[C@H](c1ccc(Cl)cc1Cl)n1nc(C#N)c2ncc(N3CC([C@H]4CCCN(Cc5ncc[nH]5)C4)C3)nc21` (single isomer, unassigned) [Example 80]: the IC50 is less than 100 nM.

With `C[C@H](c1ccc(Cl)cc1Cl)n1nc(C#N)c2ncc(N3CC([C@@H]4CCCN(Cc5ncc[nH]5)C4)C3)nc21` (single isomer, unassigned) [Example 81], the IC50 was 100 to 500 nM.

Take `COC(=O)NCCN1CCC[C@H](C2CN(c3cnc4c(C)nn([C@H](C)c5ccc(Cl)cc5Cl)c4n3)C2)C1` (single isomer, unassigned) [Example 84]: the IC50 is less than 100 nM.

In the case of `COC(=O)NCCN1CCC[C@@H](C2CN(c3cnc4c(C)nn([C@H](C)c5ccc(Cl)cc5Cl)c4n3)C2)C1` (single isomer, unassigned) [Example 85], the IC50 was less than 100 nM.

As to `CC(=O)NCCN1CCC[C@@H](C2CN(c3cnc4c(C(F)(F)F)nn([C@H](C)c5ccc(Cl)cc5Cl)c4n3)C2)C1` (single isomer, unassigned) [Example 86], the IC50 lay within 100 to 500 nM.

Regarding `CC(=O)NCCN1CCCC(C2CN(c3cnc4c(C(F)(F)F)nn([C@H](C)c5ccc(Cl)cc5Cl)c4n3)C2)C1` (single isomer, unassigned) [Example 87], the IC50 was less than 100 nM.

Turning to `CC(C)C(=O)NCCN1CCC[C@@H](C2CN(c3cnc4c(C(F)(F)F)nn([C@H](C)c5ccc(Cl)cc5Cl)c4n3)C2)C1` (single isomer, unassigned) [Example 88], the IC50 is 100 to 500 nM.

Consider `CC(C)C(=O)NCCN1CCC[C@H](C2CN(c3cnc4c(C(F)(F)F)nn([C@H](C)c5ccc(Cl)cc5Cl)c4n3)C2)C1` (single isomer, unassigned) [Example 89], for which the IC50 was less than 100 nM.

For `Cc1nn([C@H](C)c2ccc(Cl)cc2Cl)c2nc(N3CC([C@H]4CCCN(CCNC(=O)C(C)C)C4)C3)cnc12` (single isomer, unassigned) [Example 90], the IC50 is less than 100 nM.

As to `Cc1nn([C@H](C)c2ccc(Cl)cc2Cl)c2nc(N3CC([C@@H]4CCCN(CCNC(=O)C(C)C)C4)C3)cnc12` (single isomer, unassigned) [Example 91], the IC50 is less than 100 nM.

In the case of `CC(=O)NCCN1CCC[C@H](C2CN(c3cnc4c(C#N)nn([C@H](C)c5ccc(Cl)cc5Cl)c4n3)C2)C1` (single isomer, unassigned) [Example 92], the IC50 is less than 100 nM.

For `CC(=O)NCCN1CCC[C@@H](C2CN(c3cnc4c(C#N)nn([C@H](C)c5ccc(Cl)cc5Cl)c4n3)C2)C1` (single isomer, unassigned) [Example 93], the IC50 was less than 100 nM.

`C[C@H](c1ccc(Cl)cc1Cl)n1nc(C#N)c2ncc(N3CC([C@@H]4CCN(CCCO)C4)C3)nc21` (single isomer, unassigned) [Example 94]: the IC50 is 100 to 500 nM.

As for `C[C@H](c1ccc(Cl)cc1Cl)n1nc(C#N)c2ncc(N3CC([C@H]4CCN(CCCO)C4)C3)nc21` (single isomer, unassigned) [Example 95], the IC50 is less than 100 nM.

On to `Cc1nn([C@H](C)c2ccc(Cl)cc2Cl)c2nc(N3CC([C@@H]4CCCN(CCNS(=O)(=O)C(C)C)C4)C3)cnc12` (single isomer, unassigned) [Example 96], for which the IC50 was in the range of 100 to 500 nM.

Consider `Cc1nn([C@H](C)c2ccc(Cl)cc2Cl)c2nc(N3CC(C4CCCN(CCNS(=O)(=O)C(C)C)C4)C3)cnc12` (single isomer, unassigned) [Example 97], for which the IC50 is less than 100 nM.

In the case of `Cc1nn([C@H](C)c2ccc(Cl)cc2Cl)c2nc(N3CC([C@@H]4CCCN(CCNS(C)(=O)=O)C4)C3)cnc12` (single isomer, unassigned) [Example 98], the IC50 lay within 100 to 500 nM.

For `Cc1nn([C@H](C)c2ccc(Cl)cc2Cl)c2nc(N3CC([C@H]4CCCN(CCNS(C)(=O)=O)C4)C3)cnc12` (single isomer, unassigned) [Example 99], the IC50 is less than 100 nM.

On to `CC(=O)NCCN1CCC[C@H](C2CN(c3cnc4c(C)nn([C@H](C)c5ccc(Cl)cc5Cl)c4n3)C2)C1` (single isomer, unassigned) [Example 100], for which the IC50 was less than 100 nM.

In the case of `CC(=O)NCCN1CCC[C@@H](C2CN(c3cnc4c(C)nn([C@H](C)c5ccc(Cl)cc5Cl)c4n3)C2)C1` (single isomer, unassigned) [Example 101], the IC50 was less than 100 nM.

For the molecule `C[C@H](c1ccc(Cl)cc1Cl)n1nc(C#N)c2ncc(N3CC([C@H]4CCCN(CCCS(N)(=O)=O)C4)C3)nc21` (single isomer, unassigned) [Example 107], the IC50 was less than 100 nM.

In the case of `C[C@H](c1ccc(Cl)cc1Cl)n1nc(C#N)c2ncc(N3CC([C@@H]4CCCN(CCCS(N)(=O)=O)C4)C3)nc21` (single isomer, unassigned) [Example 108], the IC50 was 100 to 500 nM.
